Data reported in ChEMBL document CHEMBL1139776, “Development of carboxylic acid replacements in indole-N-acetamide inhibitors of hepatitis C virus NS5B polymerase” (Bioorg Med Chem Lett, 2007).
Calls of active or inactive are those of the source. The calls are words filed in the database; no cut-off is given here.

What was measured:
[1] = Inhibition of HCV NS5B deltaC RNA polymerase; design: species or system Hepacivirus hominis
Hepatitis C virus [2] = assay: Antiviral activity against HCV in Huh7 cells assessed as inhibition of viral replication in presence of 10% fetal calf serum; format: functional, organism-based, Hepacivirus hominis; settings: Huh-7
Homo sapiens = organism: Homo sapiens; assay: Protein binding in human plasma assessed as free drug level; settings: read-out: PPB
[3] = Oral bioavailability in rat at 3 mg/kg; format: ADME, organism-based; settings: in vivo
[4] = Cytotoxicity against Huh7 cells; format: cell-based, Huh-7; settings: human
Hepatitis C virus [5] = assay: Antiviral activity against HCV in Huh7 cells assessed as inhibition of viral replication in absence of serum; format: functional, organism-based, Hepacivirus hominis; settings: Huh-7
[6] = Terminal phase half life in rat at 3 mg/kg, iv; format: ADME, organism-based; design: dose 3 mg/kg, route intravenous; settings: in vivo
[7] = Plasma clearance in rat at 3 mg/kg, po or 3 mg/kg, iv; format: ADME, organism-based
[8] = AUC in rat at 3 mg/kg, po; format: ADME, organism-based; design: dose 3 mg/kg, route oral; settings: plasma
[9] = Dissociation constant, pKa of the compound; format: physicochemical

IC50 [1] [µM] | EC50 (Hepatitis C virus [2]) [µM] | fraction unbound (Homo sapiens) | SMILES | other results
0.014 | 0.38 | 0.011 | CN(C)C(=O)Cn1c(-c2ccoc2)c(C2CCCCC2)c2ccc(C(=O)NS(=O)(=O)N(C)C)cc21 | –
0.067 | 3.7 | – | COc1cccc(-c2c(C3CCCCC3)c3ccc(-c4noc(=O)[nH]4)cc3n2CC(=O)N2CCC(N(C)C)CC2)c1 | –
0.017 | 1.9 | – | CN(C)C1CCN(C(=O)Cn2c(-c3ccc(Cl)cc3)c(C3CCCCC3)c3ccc(-c4noc(=O)[nH]4)cc32)CC1 | –
– | – | – | CN(C)C(=O)Cn1c(-c2ccccc2)c(C2CCCCC2)c2ccc(-c3noc(=O)[nH]3)cc21.O=C(O)C(F)(F)F | bioavailability [3]: 20%
0.009 | 0.71 | 0.008 | CN(C)C(=O)Cn1c(-c2ccccc2)c(C2CCCCC2)c2ccc(C(=O)NS(=O)(=O)N(C)C)cc21 | –
0.004 | 0.12 | – | CCN(CC)C1CCN(C(=O)Cn2c(-c3ccoc3)c(C3CCCCC3)c3ccc(C(=O)NS(=O)(=O)N(C)C)cc32)CC1 | CC50 [4]: 50 µM
0.011 | 3.9 | 0.003 | CN(C)C(=O)Cn1c(-c2ccccc2)c(C2CCCCC2)c2ccc(C(=O)NS(=O)(=O)c3ccccc3)cc21 | EC50 (Hepatitis C virus [5]): 0.13 µM
0.031 | 5.4 | 0.019 | CN(C)CCS(=O)(=O)NC(=O)c1ccc2c(C3CCCCC3)c(-c3ccccc3)n(CC(=O)N(C)C)c2c1 | EC50 (Hepatitis C virus [5]): 2 µM
0.068 | 4.4 | 0.001 | CN(C)C(=O)Cn1c(-c2ccccc2)c(C2CCCCC2)c2ccc(-c3noc(=O)[nH]3)cc21 | half-life [6]: 13 h; clearance [7]: 12 mL/min/kg; AUC [8]: 2 µM·h; pKa [9]: 4.8
0.019 | 0.56 | 0.01 | CN(C)C(=O)Cn1c(-c2ccoc2)c(C2CCCCC2)c2ccc(C(=O)NS(=O)(=O)CC(=O)O)cc21 | –
0.3 | 17 | – | Cc1ccccc1-c1c(C2CCCCC2)c2ccc(-c3noc(=O)[nH]3)cc2n1CC(=O)N1CCC(N(C)C)CC1 | –
0.046 | 2.1 | – | CCS(=O)(=O)NC(=O)c1ccc2c(C3CCCCC3)c(-c3ccccc3)n(CC(=O)N(C)C)c2c1 | half-life [6]: 2 h; clearance [7]: 51 mL/min/kg; AUC [8]: 1 µM·h; EC50 (Hepatitis C virus [5]): 0.52 µM
0.059 | 1.3 | – | CN(C)C1CCN(C(=O)Cn2c(-c3ccccc3)c(C3CCCCC3)c3ccc(-c4noc(=O)[nH]4)cc32)CC1 | –
0.78 | 20 | – | CN(C)C(=O)Cn1c(-c2cccnc2)c(C2CCCCC2)c2ccc(-c3noc(=O)[nH]3)cc21 | –
0.17 | > 50 | 0.094 | CN(C)C1CCN(C(=O)Cn2c(-c3cnn(C)c3)c(C3CCCCC3)c3ccc(-c4noc(=O)[nH]4)cc32)CC1 | –
0.026 | 1.1 | – | CN(C)CC1CN(C(=O)Cn2c(-c3ccoc3)c(C3CCCCC3)c3ccc(-c4noc(=O)[nH]4)cc32)CCO1 (stereo unspecified) | –
0.029 | 1.6 | – | CN(C)C(=O)Cn1c(-c2ccccc2)c(C2CCCCC2)c2ccc(C(=O)NS(=O)(=O)CC(=O)O)cc21 | –
0.031 | 5 | < 0.001 | CN(C)C(=O)Cn1c(-c2ccccc2)c(C2CCCCC2)c2ccc(C(=O)NS(=O)(=O)Cc3ccccc3)cc21 | EC50 (Hepatitis C virus [5]): 0.15 µM
– | – | – | CN(C)C(=O)Cn1c(-c2ccccc2)c(C2CCCCC2)c2ccc(C(=O)O)cc21.O=C(O)C(F)(F)F | bioavailability [3]: 45%
– | – | – | CCS(=O)(=O)NC(=O)c1ccc2c(C3CCCCC3)c(-c3ccccc3)n(CC(=O)N(C)C)c2c1.O=C(O)C(F)(F)F | bioavailability [3]: 24%
0.022 | 1.5 | 0.008 | CCS(=O)(=O)NC(=O)c1ccc2c(C3CCCCC3)c(-c3ccoc3)n(CC(=O)N(C)C)c2c1 | –
0.047 | 1.1 | 0.021 | CN1CCCC(CN(C)C(=O)Cn2c(-c3ccccc3)c(C3CCCCC3)c3ccc(-c4noc(=O)[nH]4)cc32)C1 (stereo unspecified) | –
0.075 | 1.6 | – | CN1CCC(N(C)C(=O)Cn2c(-c3ccccc3)c(C3CCCCC3)c3ccc(-c4noc(=O)[nH]4)cc32)C1 (stereo unspecified) | –
0.011 | 1.5 | – | CCS(=O)(=O)NC(=O)c1ccc2c(C3CCCCC3)c(-c3ccc(OC)cc3)n(CC(=O)N(C)C)c2c1 | –
0.086 | 1.5 | – | CN(C)C(=O)Cn1c(-c2ccccc2)c(C2CCCCC2)c2ccc(C(=O)O)cc21 | half-life [6]: 5 h; clearance [7]: 32 mL/min/kg; AUC [8]: 2 µM·h; pKa [9]: 4.8
0.64 | – | 0.001 | CN(C)C(=O)Cn1c(-c2ccccc2)c(C2CCCCC2)c2ccc(C(=O)N(C)S(=O)(=O)Cc3ccccc3)cc21 | Activity (Hepatitis C virus [2]; Hepacivirus hominis): inactive
0.053 | 2.4 | – | CN(C)C1CCN(C(=O)Cn2c(-c3ccccc3F)c(C3CCCCC3)c3ccc(-c4noc(=O)[nH]4)cc32)CC1 | –
0.009 | 0.34 | – | CCN(CC)CC1CN(C(=O)Cn2c(-c3ccc(OC)cc3)c(C3CCCCC3)c3ccc(C(=O)NS(=O)(=O)CC)cc32)CCO1 (stereo unspecified) | CC50 [4]: 50 µM
